Here are results for 15 compounds from ChEMBL document CHEMBL3616419, “Synthesis, structure-activity relationship and biological evaluation of novel nitrogen mustard sophoridinic acid derivatives as potential anticancer agents” (Bioorg Med Chem Lett, 2015).

The term IC50 denotes the concentration that inhibits the measured activity by half.

The test system of one series is HepG2. The experiment in a line: Antiproliferative activity against human HepG2 cells incubated for 48 hrs by MTT assay. The class given is functional, cell-based. The conditions noted are these: HepG2, 48 h.
Series [1] can be described thus: Stability of the compound. Format: physicochemical.
Series [2] in a line: Antitumor activity against […] HepA cells xenografted in KM mouse assessed as inhibition of tumor weight at 36 mg/kg, iv dosed for 10 days relative to untreated control. The class given is functional. The conditions noted are these: 240 h, read-out: TGI. A general note: In xenograft studies the graft and the host belong to different species.
Series [3] in a line: Antitumor activity against […] HepA cells xenografted in KM mouse assessed as inhibition of tumor weight at 72 mg/kg, iv dosed for 10 days relative to untreated control. Format: functional. Conditions: 240 h, read-out: TGI.
A short description of series [4]: Antitumor activity against […] HepA cells xenografted in KM mouse assessed as inhibition of tumor weight at 18 mg/kg, iv dosed for 10 days relative to untreated control. Format: functional. Conditions: 240 h, read-out: TGI.
A further series deals with Mus musculus. In words: Toxicity in […] HepA cells xenografted KM mouse assessed as reduction in body weight at 18 to 72 mg/kg, iv dosed for 10 days relative to untreated control. Format: organism-based. Conditions: in vivo, 240 h. On the set-up: scale not given: the % may be the effect or the level left.

≈ marks a conversion by molar mass, not a printed value. Where only a bound is given, the exact number is not on record here.

With `COC(=O)CCC[C@@H]1NC[C@H]2CCCN3CCC[C@H]1[C@H]23`, in the series on HepG2, 1650 µg/mL (≈ 5890 µM) corresponded to half-maximal inhibition (IC50).
`CCOC(=O)CCC[C@@H]1NC[C@H]2CCCN3CCC[C@H]1[C@H]23` gave an IC50 in the series with HepG2 of 223 µg/mL (≈ 757 µM).
The same measure, in the same setting: then `CCCOC(=O)CCC[C@@H]1NC[C@H]2CCCN3CCC[C@H]1[C@H]23`, with 196 µg/mL (≈ 635 µM).
Still for that read-out and setting: the same measure for `CC(C)OC(=O)CCC[C@@H]1NC[C@H]2CCCN3CCC[C@H]1[C@H]23`: 93.1 µg/mL (≈ 302 µM); for `CCCCOC(=O)CCC[C@@H]1NC[C@H]2CCCN3CCC[C@H]1[C@H]23`: 136 µg/mL (≈ 421 µM).
Turning to `COC(=O)CCC[C@H]1[C@H]2CCCN3CCC[C@H](CN1C(=O)c1ccc(N(CCCl)CCCl)cc1)[C@@H]23`, the Stability entry in series [1] is reported as “Unstable”. Moreover, in the series with HepG2, the IC50 is 167 µg/mL (≈ 319 µM).
The corresponding values for `CCOC(=O)CCC[C@H]1[C@H]2CCCN3CCC[C@H](CN1C(=O)c1ccc(N(CCCl)CCCl)cc1)[C@@H]23` are “Unstable” and 91.2 µg/mL (≈ 169 µM).
The corresponding values for `CCCOC(=O)CCC[C@H]1[C@H]2CCCN3CCC[C@H](CN1C(=O)c1ccc(N(CCCl)CCCl)cc1)[C@@H]23` are “Unstable” and 44.6 µg/mL (≈ 80.7 µM).
As to `CC(C)OC(=O)CCC[C@H]1[C@H]2CCCN3CCC[C@H](CN1C(=O)c1ccc(N(CCCl)CCCl)cc1)[C@@H]23`, in series [1], the Stability result was “Unstable”. Also, in the series on HepG2, the IC50 was 2.39 µg/mL (≈ 4.33 µM).
`CCCCOC(=O)CCC[C@H]1[C@H]2CCCN3CCC[C@H](CN1C(=O)c1ccc(N(CCCl)CCCl)cc1)[C@@H]23`: the Stability result in series [1] was “Unstable”. This compound came in with an IC50 in the series with HepG2 of 25 µg/mL (≈ 44.1 µM).
Regarding `O=C(CCC[C@H]1[C@H]2CCCN3CCC[C@H](CN1Cc1ccccc1)[C@@H]23)Nc1ccc(N(CCCl)CCCl)cc1`, in series [2], the inhibition in vivo at 36 mg/kg amounted to 47.3%. For the same compound, the inhibition in vivo at 72 mg/kg in series [3] stood at 58.2%. For the same compound, the inhibition in vivo at 18 mg/kg in series [4] amounted to 42.5%. In addition, the Activity entry in the series on Mus musculus is on record as “<= 20%”. In the series on HepG2, this compound displayed an IC50 of 0.47 µg/mL (≈ 0.822 µM).
In the case of `O=C(CCC[C@H]1[C@H]2CCCN3CCC[C@H](CN1Cc1ccccc1)[C@@H]23)OCc1ccc(N(CCCl)CCCl)cc1`, in the series on HepG2, the IC50 amounted to 1.63 µg/mL (≈ 2.78 µM).
Still for that read-out and setting: then `O=C(CCC[C@H]1[C@H]2CCCN3CCC[C@H](CN1Cc1ccccc1)[C@@H]23)N(CCCl)CCCl`, with 2.74 µg/mL (≈ 5.7 µM).
The compound `N[C@@H](Cc1ccc(N(CCCl)CCCl)cc1)C(=O)O` [MELPHALAN] had an IC50 in the series with HepG2 of 0.41 µg/mL (≈ 1.34 µM).
In the case of `O=C1CCC[C@@H]2[C@H]3CCCN4CCC[C@H](CN12)[C@@H]34` [SOPHORIDINE], in the series on HepG2, half-maximal inhibition (IC50) required 1160 µg/mL (≈ 4670 µM).
